Measured values: PMC4445328, “Azasugar inhibitors as pharmacological chaperones for Krabbe disease” (Chemical Science, 2015)
Read-outs that look alike come from different tables or passages of the source. Blank lines part the entries; values can stand above or below the molecule they belong to.

Experiments:
[1] = biological target: T1, β-galactocerebrosidase (GALC) (Mus musculus, UniProt P54818); test: GALC enzyme inhibition kinetics, Ki determination with chromogenic substrate 4NβDG; type: biochemical; conditions: for Ki: pH 4.6, substrate 4-nitrophenyl-β-D-galactopyranoside, steady-state, competitive inhibition model; for times more potent inhibitors of GALC than pyrrolidine DIL and lactam IGL: pH 4.6, ratio of Ki values
T1 construct: made in house
T1 sequence (P54818 43-684): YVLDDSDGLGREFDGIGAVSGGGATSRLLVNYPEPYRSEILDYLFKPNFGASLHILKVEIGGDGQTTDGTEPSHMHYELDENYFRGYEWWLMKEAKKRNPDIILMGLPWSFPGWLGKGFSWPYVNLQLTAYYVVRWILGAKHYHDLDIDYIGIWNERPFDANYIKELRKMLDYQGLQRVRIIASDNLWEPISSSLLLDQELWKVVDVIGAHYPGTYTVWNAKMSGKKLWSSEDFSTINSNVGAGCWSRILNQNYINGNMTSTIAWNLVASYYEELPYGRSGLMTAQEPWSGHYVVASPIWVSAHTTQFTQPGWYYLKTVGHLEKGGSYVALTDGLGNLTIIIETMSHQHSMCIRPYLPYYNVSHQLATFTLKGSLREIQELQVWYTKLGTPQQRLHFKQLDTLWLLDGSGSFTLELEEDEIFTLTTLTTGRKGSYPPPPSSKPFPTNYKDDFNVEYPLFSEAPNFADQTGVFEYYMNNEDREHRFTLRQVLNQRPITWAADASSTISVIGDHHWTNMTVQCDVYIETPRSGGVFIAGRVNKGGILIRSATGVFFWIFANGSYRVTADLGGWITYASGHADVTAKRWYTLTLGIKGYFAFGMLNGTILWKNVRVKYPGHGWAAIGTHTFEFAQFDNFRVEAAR

[2] = biological target: T2, GALC (Mus musculus, UniProt P54818); test: Differential scanning fluorimetry (DSF) thermal shift of wild-type GALC; type: binding; conditions: for ΔTm at 5000 µM / ΔTm1 pH 7.4 (first transition of double sigmoid melt curve) / ΔTm2 pH 7.4 (second transition of double sigmoid melt curve): 5.0 mM compound; for ΔTm at 5000 µM: triplicate; for additional increase of Tm over DGJ, DIL and IGL / increase of Tm of wild-type enzyme: pH 4.6, 5 mM; for ΔTm1 pH 7.4 (first transition of double sigmoid melt curve) / ΔTm2 pH 7.4 (second transition of double sigmoid melt curve): PBS pH 7.4
T2 construct: made in house
T2 sequence (P54818 43-684): T1 sequence (P54818 43-684)

[3] = pKaH and protonation state of azasugars; type: physicochemical; conditions: pH 7.4, from pKaH
[4] = parameters: method as in PMID 11891910; conditions: cited from earlier work
[5] = biological target: T3, GALC E258Q (Mus musculus, UniProt P54818, E274Q); test: DSF thermal shift of GALC E258Q mutant; type: binding; conditions: pH 7.4 PBS, 10 mM compound
T3 construct: made in house
T3 sequence (P54818 41-684 E274Q limits assumed): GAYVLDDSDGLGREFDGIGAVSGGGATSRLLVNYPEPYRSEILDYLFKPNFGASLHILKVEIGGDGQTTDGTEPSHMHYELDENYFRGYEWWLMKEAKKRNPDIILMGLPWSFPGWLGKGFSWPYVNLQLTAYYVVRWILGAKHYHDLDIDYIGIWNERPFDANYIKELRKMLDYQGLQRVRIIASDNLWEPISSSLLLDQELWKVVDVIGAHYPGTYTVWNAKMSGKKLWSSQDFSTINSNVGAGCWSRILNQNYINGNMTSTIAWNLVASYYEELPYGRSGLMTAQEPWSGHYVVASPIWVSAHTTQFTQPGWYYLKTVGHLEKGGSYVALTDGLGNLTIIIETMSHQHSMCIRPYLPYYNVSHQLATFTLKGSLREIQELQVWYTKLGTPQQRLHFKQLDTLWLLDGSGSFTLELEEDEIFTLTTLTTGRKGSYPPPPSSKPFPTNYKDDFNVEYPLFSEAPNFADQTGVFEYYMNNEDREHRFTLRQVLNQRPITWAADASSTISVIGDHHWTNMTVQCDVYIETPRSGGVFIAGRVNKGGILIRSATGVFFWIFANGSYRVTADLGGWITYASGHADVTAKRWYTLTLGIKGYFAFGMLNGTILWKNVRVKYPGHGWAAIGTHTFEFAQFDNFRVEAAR
From the text: All molecules form stabilizing hydrogen bonds with the side chain of E258 in the active site (Fig. 8A). […] Thus E258 O^ε2 could be forming a tight electrostatic interaction with the charged nitrogen in the ring of these molecules. Mutation of E258 to glutamine allows for the maintenance of a hydrogen bond but not an electrostatic interaction. We expressed and purified the E258Q mutant and repeated the DSF experiments at both pH 4.6 and pH 7.4. The importance of this interaction between E258 and the candidate chaperone molecules is highlighted by the complete loss of stabilization of GALC E258Q at pH 4.6 by all molecules except lactam IGL, which is incapable of forming a salt bridge (Fig. 8B). At pH 7.4, the global stability conferred by piperidine IGF to the E258Q mutant has lost the double sigmoid features seen for the wild-type GALC at pH 7.4 (Fig. 4A and 8C). […] To further understand the nature of the GALC–IGF interaction that is conferring the double melt curve we carried out DSF experiments at a range of pH values. […]
DSF experiments were performed in 48-well plates, 50 μL reactions comprised 5.0 μg GALC and 5× SyPRO Orange dye in either PBS pH 7.4, 20 mM Tris pH 7.4 or 20 mM sodium acetate pH 4.6. […] SyPRO fluorescence was monitored on the HEX channel. […] Stabilization is expressed as the ΔT m compared to a protein-only control. […]

[6] = biological target: T2, GALC; test: GALC crystal soaks, X-ray ligand binding in the active site; conditions: 20 mM ligand crystal soak; non-binders repeated for 1 hour and overnight
[7] = 50 mM, Fig. S2, pH 4.6 and pH 7.4
[8] = PBS pH 7.4, mean ± SEM, read-out: ΔTm pH 7.4
[9] = sodium acetate pH 4.6, mean ± SEM, read-out: ΔTm pH 4.6

Compound: OC[C@H]1OC(O)[C@H](O)[C@@H](O)[C@H]1O (mixture of isomers) [galactose, reference compound]
Ki [1]: 7200 µM
stabilization of GALC [2, 7]: no stabilization

Compound: O=CC[C@@H](O)[C@@H](O)[C@H](O)CO [2-deoxy-galactose, reference compound]
stabilization of GALC [2, 7]: no stabilization

Compound: OCC1NCC(O)C(O)C1O (stereo not shown) [DGJ, 1-deoxy-galacto-nojirimycin, reference compound]
ΔTm at 5000 µM [2, 8]: 5.2 °C
increase of Tm of wild-type enzyme [2]: 6–8 degrees

Compound: OCC1C2CCC(N2)C(O)C1O (stereo not shown) [DGN, deoxy-galacto-noeurostegine]
ΔTm at 5000 µM [2, 8]: -3.6 ± 0.1 °C
ΔTm at 5000 µM [2, 9]: 1 °C
effect on global stability of wild-type GALC ([2]; pH 7.4): destabilized GALC

Compound: OC[C@H]1NC[C@@H](O)[C@H]1O [DIL]
Ki [1]: 130 ± 6 µM
ΔTm at 5000 µM [2, 8]: 4 °C
ΔTm at 5000 µM [2, 9]: 7.2 °C
increase of Tm of wild-type enzyme [2]: 6–8 degrees

Compound: CN1[C@@H](CC(=O)c2ccccc2)CCC[C@H]1C[C@H](O)c1ccccc1 [α-lobeline, reference compound]
change in Tm ([2]; either pH (4.6 or 7.4), data not shown): No change in T m
binding in GALC crystals (difference electron density in active site) [6]: not observed to bind

Further lines, with some results ahead:

times more potent inhibitors of GALC than pyrrolidine DIL and lactam IGL [1]: greater than 80 times
Ki [1]: 0.63 ± 0.053 µM
ΔTm at 5000 µM [2, 8]: 4.6 °C
ΔTm at 5000 µM [2, 9]: 16.4 °C
additional increase of Tm over DGJ, DIL and IGL [2]: 8–9 degrees
molecules possessing a positive charge at pH 7.4 [3]: 2%
Compound: OC[C@H]1NNC[C@@H](O)[C@H]1O [AGF, aza-galacto-fagomine]
pKaH [4]: 5.7

stabilization of GALC ([2]; up to 10 mM, either pH (4.6 or 7.4), Fig. S2): unable to stabilize GALC
Compound: OC[C@H]1NC[C@H](O)[C@@H](O)[C@@H]1O [DNJ, 1-deoxynojirimycin, reference compound]

times more potent inhibitors of GALC than pyrrolidine DIL and lactam IGL [1]: greater than 80 times
Ki [1]: 0.38 ± 0.026 µM
ΔTm1 pH 7.4 (first transition of double sigmoid melt curve) [2]: 4 °C
ΔTm2 pH 7.4 (second transition of double sigmoid melt curve) [2]: 21 °C
ΔTm1 pH 7.4 (first transition of double sigmoid melt curve) ([2]; listed as IGF1): +4.0 ± 0.3 °C
ΔTm2 pH 7.4 (second transition of double sigmoid melt curve) ([2]; listed as IGF2): +21.0 ± 0.2 °C
ΔTm at 5000 µM [2, 9]: 17.7 °C
additional increase of Tm over DGJ, DIL and IGL [2]: 8–9 degrees
higher Tm2 with GALC E258Q [5]: abolished
molecules possessing a positive charge at pH 7.4 [3]: 96%
Compound: OC[C@H]1CNC[C@@H](O)[C@H]1O [IGF, iso-galacto-fagomine]
pKaH [4]: 8.8

Ki [1]: 52 ± 3 µM
ΔTm at 5000 µM [2, 8]: 1.6 °C
ΔTm at 5000 µM [2, 9]: 8.1 °C
increase of Tm of wild-type enzyme [2]: 6–8 degrees
Compound: O=C1NC[C@H](CO)[C@H](O)[C@@H]1O [IGL, iso-galacto-fagomine lactam]
